Structures are written as SMILES.

Results on two molecules are retold here after patent US9044464B2, “No-releasing guanidine-coxib anti-cancer agents” (Euclises Pharmaceuticals, Inc., priority 2012, dated 2015).

The test has as its system PGE2 levels. Description: Rat Air-Pouch Model for Acute Inflammation (carrageenan challenge, exudate volume and PGE2 by ELISA). Particulars: for Volume (mL), collected exudate volume, mean / PGE2 (pg/mL) in exudate, mean: 0.01 mmol/kg oral gavage 2 h before intra-pouch 1% carrageenan, exudate collected 4 h after carrageenan; for Volume (mL), collected exudate volume, mean: 5 rats/group, vehicle mean 5.7; for PGE2 (pg/mL) in exudate, mean: ELISA, vehicle mean 4357.7; for reduction in exudate PGE2 release / reduction in collected exudate volume: 0.01 mmol/kg oral pretreatment, versus vehicle; for reduction in collected exudate volume: significant. It counts as in vivo, Sprague-Dawley rats. On the procedure:
A study of celecoxib release from Example Compound 5 is assessed by measurement of PGE2 levels, which are indicative of inflammatory response.
Animals: Sprague-Dawley rats (Charles River Laboratories, R #3234, PO #738990, male, 160-180 g) were received, individually examined, and housed in cages of five rats each. The rats were ear notched for identification purposes.
Compounds and dosing solutions: The vehicle was prepared by dissolving 40 g (2-hydroxypropyl)-β-cyclodextrin (HP-β-CD, Sigma, Cat. 332593, lot MKBJ5858V) in 160 mL sterile saline for injection, USP (Hospira, lot 26-801-FW) making a […] solution which was filter sterilized (0.2 μm, Nalgene, Cat. 151-4020, lot 1095610). A 1% carrageenan solution was prepared by dissolving […] (Fluka, Cat. 22049, lot 1318338) in hot 60 mL sterile saline for injection, USP. This solution was stored at 4-8° C. Test compounds were dissolved in DMSO (Fisher Scientific, Cat. D128-500, lot 874999) to make 75 mM stocks. 0.25 mL of compound DMSO stocks were mixed with 12.5 mL of HP-β-CD solution at 50° C. (maximum DMSO concentration was 2% of the final volume of vehicle). Final concentration of all test compounds was 1.5 mM and compounds were dosed within 2 hours of preparation at 0.01 mmol/kg ([…] of test compound per rat).
Day 0—Air pouch initiation: The rats were anesthetized in a biological cabinet, the nape of the neck was cleansed with 70% isopropanol (Butler Schein Animal Health, Cat. 002498, lot 29EMS07104547) followed by 1% povidone-iodine solution (Ricca Chemical Co., Cat. 3955-16, lot 2205469). Twenty mL of sterile (0.22 μm, Millipore, Cat. SLGP033RS, lot R2KA55925, exp 08/2015) air was injected subcutaneously (SC) using a 23G×1½ inch needle fixed to a 20 mL syringe. The rats were returned to routine housing. No adverse reactions were observed.
Day 3—Air pouch maintenance: The rats were anesthetized in a biological cabinet, the nape of the neck was cleansed with 70% isopropanol followed by 1% povidone-iodine solution. Ten mL of sterile air was injected SC using a 23G×1½ inch needle fixed to a 20 mL syringe. The rats were returned to routine housing in clean cages. No adverse reactions were observed.
Day 6—Compound administration and carrageenan insult: At commencement of the study, each rat was weighed and sorted into treatment groups of 5 rats/group based upon average weight. Each rat was dosed orally via gavage at 6.809 mL/kg (1.6 mL/235 g) with their respective test material/vehicle. Two hours after test material/vehicle administration, the rats were injected with 1.0 mL of the room temperature 1% carrageenan saline solution into the air pouch. Four hours after carrageenan injection, the rats were anesthetized and 5 mL of the exudate buffer was injected into the air pouch. The pouch was gently massaged, the exudate immediately removed, and exudate volume recorded. The exudate was collected in a serum separator tube on an ice bath. The exudates were centrifuged (refrigerated) and an aliquot of the supernatant was stored in a labeled Eppendorf tube at −80° C.
Termination of Study: Animals were euthanized via CO2 asphyxiation at the completion of the in-life portion of this study and carcasses were disposed of according to standard protocols.
Data analysis: The exudate samples were thawed to room temperature and assayed by ELISA for PGE2 (R&D Systems, Cat. KGE004B, lot 307711). Statistical significance of treatments on mean exudate volumes are determined by comparison of means for treatment groups with vehicle group. Mean cytokine concentrations and standard deviations are determined for each group. Statistical significance of treatments on cytokine concentrations are determined for each compound group compared to vehicle group. Statistical significance (p-value) was calculated vs control groups by Student's t-Test.

Regarding `Cc1ccc(-c2cc(C(F)(F)F)nn2-c2ccc(S(N)(=O)=O)cc2)cc1` [celecoxib, 4-[5-(4-Methylphenyl)-3-(trifluoromethyl)-1H-pyrazol-1-yl]benzenesulfonamide], the “Volume (mL), collected exudate volume, mean” value turned out to be 4.6 mL; the “PGE2 (pg/mL) in exudate, mean” value was 907.1 pg/mL; the “reduction in exudate PGE2 release” value was determined as 80%; the “reduction in collected exudate volume” value is recorded as 19%.

For the molecule `Cc1ccc(-c2cc(C(F)(F)F)nn2-c2ccc(S(=O)(=O)NC(=O)[C@@H](N)CCCNC(=N)N)cc2)cc1` [Example 5, (S)-2-Amino-5-guanidino-N-((4-(5-(p-tolyl)-3-(trifluoromethyl)-1H-pyrazol-1-yl)phenyl)sulfonyl)pentanamide], the “Volume (mL), collected exudate volume, mean” value is given as 4.3 mL; the “PGE2 (pg/mL) in exudate, mean” value stood at 896.0 pg/mL; the “reduction in exudate PGE2 release” value is listed as 80%; the “reduction in collected exudate volume” value amounted to 24%.
